In patent publication US20090062122A1, “Cotton Growth Regulator” (FMC Corporation, priority 2006, published 2009):

Assays:
Format in all cases: in vivo
cotton, variety D&PL 555 [1] = assay: % terminal control of cotton plants, field trial
Procedure: (§1) The trial was performed on cotton, variety D&PL 555. The formulated test compounds were diluted to the appropriate concentrations with water to which a crop oil concentrate (1% to 2% v/v) or a non-ionic surfactant (0.25% v/v) was added. The application of the test composition as a cotton plant growth regulator was performed using pressurized, over-the-top spray equipment consisting of a research scale boom sprayer. Deposit of the test composition was primarily to the top of the cotton plants, minimizing spray deposition to lower branches, leaves and fruit. The finished spray volume was 10 gallons per acre, with sprayer nozzle design, orientation and nozzle pressures chosen to prevent spray drift. Applications were made at first sign of cotton boll opening and at 15%, 20% and 40% open bolls.
(§2) The experimental design used randomized plots with 1 to 4 treatment rates of test composition and from 1 to 10 replications depending on the test (sees tables below). The size of each experimental plot was about 15 m^2. Testing was performed in Texas, North Carolina, Mississippi and Georgia.
(§3) Percent desiccation, percent defoliation, percent terminal control and percent open bolls were evaluated at 7 and 14 days after application (DAA) of the test composition. Inspection of cotton plants for insect control of armyworm larvae was performed at 2 DAA and insect damage to bolls was performed at the time of harvest
Terminal control refers to crop response to the top-most vertical bud and shoots growth. Percent terminal control estimates the proportion of these upper-most growth structures desiccated per 100 cotton plants. Fifty cotton plants in two representative locations within a treatment plot were chosen to determine percent control. Each terminal of the 50 plants in the 2 locations was evaluated, and the total number desiccated per 100 plants was recorded as percent terminal control.
(§4) The results, shown as the mean of the indicated number of replications, were compared with results observed in the same trials with an untreated control.

[2] = system: Brown Stinkbug (Euschistus servus); assay: % bolls damaged by brown stinkbug at harvest; settings: 15% open boll application, 0.006 lb ai/a, 1 replicate
Procedure: as §1, with “bolls. […]” for “bolls.”
Percent desiccation, percent defoliation, percent terminal control and percent open bolls were evaluated at 7 and 14 days after application (DAA) of the test composition. […]
Bollworm (Heliothis zea) and stinkbug (Euschistus servus) insect control was measured by examining the bolls of 100 cotton plants, 50 cotton plants in two representative locations with in the treatment plot, for injury caused by either bollworms or by stinkbugs. The percent damage was calculated by dividing the number of damaged bolls by the total number of bolls on the plants multiplied by 100. […]

cotton, variety D&PL 555 [3] = assay: % defoliation of cotton plants, field trial
Procedure: as §1, §2, §3
Defoliation refers to removal of leaves. Percent defoliation rating approximates the proportion of leaves of all sizes shed per 100 leaves present prior to application of the cotton growth regulator compound. An evaluation of the foliage in the untreated check plots was first undertaken. Then the test plots were individually evaluated. The percent of leaves dropped by the plants in the treated plot was determined using observations within the plot and comparisons to foliage in the untreated plot.
as §4

Structure (SMILES): CCOC(=O)C(Cl)Cc1cc(-n2nc(C)n(C(F)F)c2=O)c(F)cc1Cl (stereo not shown) [carfentrazone-ethyl, ethyl 2-chloro-3-[2-chloro-5-(4-difluoromethyl-3-methyl-5-oxo-4,5-dihydro-[1,2,4]-triazol-1-yl)-4-fluorophenyl]propionate]
- % Terminal Control (cotton, variety D&PL 555 [1]; 15% open boll application, 0.004 lb ai/a, 14 DAA, 9 replicates): 63%
- % Terminal Control (cotton, variety D&PL 555 [1]; 15% open boll application, 0.006 lb ai/a, 14 DAA, 9 replicates): 74%
- % Terminal Control (cotton, variety D&PL 555 [1]; 15% open boll application, 0.008 lb ai/a, 14 DAA, 9 replicates): 79%
- % Terminal Control (cotton, variety D&PL 555 [1]; 15% open boll application, 0.01 lb ai/a, 14 DAA, 9 replicates): 82%
- % Terminal Control (cotton, variety D&PL 555 [1]; 20% open boll application, 0.002 lb ai/a, 7 DAA, 2 replicates): 50%
- % Terminal Control (cotton, variety D&PL 555 [1]; 20% open boll application, 0.002 lb ai/a, 14 DAA, 2 replicates): 49%
- % Terminal Control (cotton, variety D&PL 555 [1]; 20% open boll application, 0.004 lb ai/a, 7 DAA, 2 replicates): 67%
- % Terminal Control (cotton, variety D&PL 555 [1]; 20% open boll application, 0.004 lb ai/a, 14 DAA, 2 replicates): 64%
- % Terminal Control (cotton, variety D&PL 555 [1]; 20% open boll application, 0.006 lb ai/a, 7 DAA, 2 replicates): 66%
- % Terminal Control (cotton, variety D&PL 555 [1]; 20% open boll application, 0.006 lb ai/a, 14 DAA, 2 replicates): 64%
- % Terminal Control (cotton, variety D&PL 555 [1]; 20% open boll application, 0.008 lb ai/a, 7 DAA, 2 replicates): 60%
- % Terminal Control (cotton, variety D&PL 555 [1]; 20% open boll application, 0.008 lb ai/a, 14 DAA, 2 replicates): 63%
- % Terminal Control (cotton, variety D&PL 555 [1]; first open boll application, 0.002 lb ai/a, 7 DAA, 3 replicates): 27%
- % Terminal Control (cotton, variety D&PL 555 [1]; first open boll application, 0.002 lb ai/a, 14 DAA, 3 replicates): 44%
- % Terminal Control (cotton, variety D&PL 555 [1]; first open boll application, 0.004 lb ai/a, 7 DAA, 3 replicates): 46%
- % Terminal Control (cotton, variety D&PL 555 [1]; first open boll application, 0.004 lb ai/a, 14 DAA, 3 replicates): 58%
- % Terminal Control (cotton, variety D&PL 555 [1]; first open boll application, 0.006 lb ai/a, 7 DAA, 3 replicates): 47%
- % Terminal Control (cotton, variety D&PL 555 [1]; first open boll application, 0.006 lb ai/a, 14 DAA, 3 replicates): 59%
- % Terminal Control (cotton, variety D&PL 555 [1]; first open boll application, 0.008 lb ai/a, 7 DAA, 3 replicates): 50%
- % Terminal Control (cotton, variety D&PL 555 [1]; first open boll application, 0.008 lb ai/a, 14 DAA, 3 replicates): 58%
- % Bolls Damaged by Brown Stinkbug (Euschistus servus) [2]: 2.25%
- % Defoliation (cotton, variety D&PL 555 [3]; 15% open boll application, 0.004 lb ai/a, 14 DAA, 10 replicates): 28%
- % Defoliation (cotton, variety D&PL 555 [3]; 15% open boll application, 0.006 lb ai/a, 14 DAA, 10 replicates): 33%
- % Defoliation (cotton, variety D&PL 555 [3]; 15% open boll application, 0.008 lb ai/a, 14 DAA, 10 replicates): 39%
- % Defoliation (cotton, variety D&PL 555 [3]; 15% open boll application, 0.01 lb ai/a, 14 DAA, 10 replicates): 41%
- % Defoliation (cotton, variety D&PL 555 [3]; 20% open boll application, 0.002 lb ai/a, 7 DAA, 3 replicates): 9%
- % Defoliation (cotton, variety D&PL 555 [3]; 20% open boll application, 0.002 lb ai/a, 14 DAA, 3 replicates): 17%
- % Defoliation (cotton, variety D&PL 555 [3]; 20% open boll application, 0.004 lb ai/a, 7 DAA, 3 replicates): 25%
- % Defoliation (cotton, variety D&PL 555 [3]; 20% open boll application, 0.004 lb ai/a, 14 DAA, 3 replicates): 38%
- % Defoliation (cotton, variety D&PL 555 [3]; 20% open boll application, 0.006 lb ai/a, 7 DAA, 3 replicates): 22%
- % Defoliation (cotton, variety D&PL 555 [3]; 20% open boll application, 0.006 lb ai/a, 14 DAA, 3 replicates): 34%
- % Defoliation (cotton, variety D&PL 555 [3]; 20% open boll application, 0.008 lb ai/a, 7 DAA, 3 replicates): 24%
- % Defoliation (cotton, variety D&PL 555 [3]; 20% open boll application, 0.008 lb ai/a, 14 DAA, 3 replicates): 36%
- % Defoliation (cotton, variety D&PL 555 [3]; 40% open boll application, 0.004 lb ai/a, 7 DAA, 1 replicate): 61%
- % Defoliation (cotton, variety D&PL 555 [3]; 40% open boll application, 0.006 lb ai/a, 7 DAA, 1 replicate): 58%
- % Defoliation (cotton, variety D&PL 555 [3]; 40% open boll application, 0.008 lb ai/a, 7 DAA, 1 replicate): 67%
- % Defoliation (cotton, variety D&PL 555 [3]; first open boll application, 0.002 lb ai/a, 7 DAA, 4 replicates): 6%
- % Defoliation (cotton, variety D&PL 555 [3]; first open boll application, 0.002 lb ai/a, 14 DAA, 4 replicates): 15%
- % Defoliation (cotton, variety D&PL 555 [3]; first open boll application, 0.004 lb ai/a, 7 DAA, 4 replicates): 12%
- % Defoliation (cotton, variety D&PL 555 [3]; first open boll application, 0.004 lb ai/a, 14 DAA, 4 replicates): 25%
